{
  "source": "patent US4868321A",
  "about": "“Isothiocyanate intermediates” (FMC Corporation, priority 1988, dated 1989)",
  "format_in_all_cases": "in vivo",
  "key": {"[1]": {"test_system": "Johnsongrass", "assay": "Postemergence Herbicidal Activity, Johnsongrass", "details": "Sorghum halepense, post-emergence", "outline": "(§1)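 Herbicidal response was graded as percent control. Compound rates were in kg/ha.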"}, "[2]": {"test_system": "Morningglory", "assay": "Postemergence Herbicidal Activity, Morningglory", "details": "Ipomoea, post-emergence", "outline": "(§2)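 Percent control scored after pre- or postemergence treatment at rates in kg/ha, using test compounds generally formulated in 50/50 acetone/water.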"}, "[3]": {"test_system": "Cotton", "assay": "Preemergence Herbicidal Activity, Cotton", "outline": "as §2"}, "[4]": {"test_system": "Green Foxtail", "assay": "Preemergence Herbicidal Activity, Green Foxtail", "details": "Setaria viridis, pre-emergence", "outline": "as §1"}, "[5]": {"test_system": "soybeans, corn, barley, wheat, rice (e.g. paddy rice), beans, peas, peanuts and potatoes", "assay": "selective herbicidal use on crops, especially preemergent"}, "[6]": {"test_system": "Velvetleaf", "assay": "Postemergence Herbicidal Activity, Velvetleaf", "details": "Abutilon theophrasti, post-emergence", "outline": "as §2"}, "[7]": {"test_system": "Green Foxtail", "assay": "Postemergence Herbicidal Activity, Green Foxtail", "details": "Setaria viridis, post-emergence", "outline": "as §1"}, "[8]": {"test_system": "Rice", "assay": "weed control of paddy rice in pots, transplanted rice", "details": "rice transplanted at a depth of 2 cm", "text": "(§3) In addition, tests of the effectiveness of weed control of paddy rice were done in pots containing clay loam paddy soil under water maintained at a depth of 3 cm. In one test tubers of narrowleaf arrowhead (Sagittaria pymaea) and rhizomes of flatsedge (Cyperus serotinus) were planted in pots at depth of 2 cm and 0.5 cm respectively, rice seedlings of 2.2 leaf state were transplanted in depth of 2 cm and 0 cm and a controlled amount of a 10% wp (wettable powder) formulation of the herbicidal compound in water was dropped into the water over the soil at 1 day and 11 days, respectively, after transplanting. In another test, seeds of various weed species (including barnyardgrass, Echinochoa crus-galli; small flower umbrellaplant, Cyperus difformis; bulrush, Scripus juncoides; Japanese ducksalad, Monochoria vaginalis; annual broadleaf weeds; and narrowleaf waterplantain, Alisma canaliculatium) were sown on the surface of the soil and the same (1 day and 11 day) herbicide applications were made."}, "[9]": {"test_system": "Wheat", "assay": "Preemergence Herbicidal Activity, Wheat", "details": "Triticum aestivum, pre-emergence", "outline": "(§4)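 Efficacy is recorded as percent control at each application rate, expressed in kg/ha.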"}, "[10]": {"test_system": "Cotton", "assay": "Postemergence Herbicidal Activity, Cotton", "details": "Gossypium hirsutum, post-emergence", "outline": "as §2"}, "[11]": {"test_system": "Soybean", "assay": "Postemergence Herbicidal Activity, Soybean", "details": "Glycine max, post-emergence", "outline": "as §4"}, "[12]": {"test_system": "broad leaf weeds", "assay": "preemergence use against broad leaf weeds", "details": "with crops such as corn, rice, wheat and soybeans"}, "[13]": {"test_system": "Rice", "assay": "Postemergence Herbicidal Activity, Rice", "details": "Oryza sativa, post-emergence", "outline": "as §4"}, "[14]": {"test_system": "Johnsongrass", "assay": "Preemergence Herbicidal Activity, Johnsongrass", "details": "Sorghum halepense, pre-emergence", "outline": "as §1"}, "[15]": {"test_system": "Barnyardgrass", "assay": "Postemergence Herbicidal Activity, Barnyardgrass", "details": "Echinochloa crus-galli, post-emergence", "outline": "as §1"}, "[16]": {"test_system": "Soybean", "assay": "Preemergence Herbicidal Activity, Soybean", "outline": "as §4"}, "[17]": {"test_system": "Wheat", "assay": "Postemergence Herbicidal Activity, Wheat", "details": "Triticum aestivum, post-emergence", "outline": "as §4"}, "[18]": {"test_system": "weeds of wide spectrum", "assay": "weed control of paddy rice in pots, weeds", "details": "1 day and 11 day treatments, e.g. about 0.06 kg/ha or less", "text": "as §3"}, "[19]": {"test_system": "Field Corn", "assay": "Postemergence Herbicidal Activity, Field Corn", "details": "Zea mays, post-emergence", "outline": "as §4"}, "[20]": {"test_system": "Field Bindweed", "assay": "Postemergence Herbicidal Activity, Field Bindweed", "details": "post-emergence", "outline": "as §2"}, "[21]": {"test_system": "broadleafed weeds", "assay": "postemergence control of broadleaf weeds"}, "[22]": {"test_system": "Barnyardgrass", "assay": "Preemergence Herbicidal Activity, Barnyardgrass", "details": "Echinochloa crus-galli, pre-emergence", "outline": "as §1"}, "[23]": {"test_system": "corn, wheat and soybeans", "assay": "postemergence crop selectivity"}, "[24]": {"test_system": "Field Bindweed", "assay": "Preemergence Herbicidal Activity, Field Bindweed", "details": "pre-emergence, 0.5 kg/ha", "outline": "as §2"}, "[25]": {"test_system": "Rice", "assay": "Preemergence Herbicidal Activity, Rice", "details": "Oryza sativa, pre-emergence, 0.5 kg/ha", "outline": "as §4"}, "[26]": {"test_system": "Morningglory", "assay": "Preemergence Herbicidal Activity, Morningglory", "details": "Ipomoea, pre-emergence, 0.5 kg/ha", "outline": "as §2"}, "[27]": {"test_system": "Velvetleaf", "assay": "Preemergence Herbicidal Activity, Velvetleaf", "details": "Abutilon theophrasti, pre-emergence, 0.5 kg/ha", "outline": "as §2"}, "[28]": {"test_system": "Field Corn", "assay": "Preemergence Herbicidal Activity, Field Corn", "details": "Zea mays, pre-emergence, 0.5 kg/ha", "outline": "as §4"}},
  "data": [
    {"smiles": "CCS(=O)(=O)Nc1cc(-n2nnn(CCCF)c2=O)c(F)cc1Cl", "note": "[Compound 4, 1-[4-chloro-2-fluoro-5-(ethylsulfonylamino)phenyl]-1,4-dihydro-4-(3-fluoropropyl)-5H-tetrazol-5-one]", "values": [
      {"measurement": "pest or weed control at 250 g/ha", "setting": "[1]; 0.25 kg/ha", "result": 20, "unit": "%"},
      {"measurement": "pest or weed control at 250 g/ha", "setting": "[2]; 0.25 kg/ha", "result": 95, "unit": "%"},
      {"measurement": "Preemergence Herbicidal Activity", "setting": "[3]; 0.25 kg/ha", "result": 95, "unit": "% Control"},
      {"measurement": "pest or weed control at 250 g/ha", "setting": "[4]; 0.25 kg/ha", "result": 20, "unit": "%"},
      {"measurement": "effective rate", "setting": "[5]; \"effective at low rates, e.g. at about 0.5 kg/ha and below\"", "result": "≤ 0.5", "unit": "kg/ha"},
      {"measurement": "selective herbicidal effectiveness", "setting": "[5]; especially preemergent use on crops", "result": "particularly effective"},
      {"measurement": "pest or weed control at 250 g/ha", "setting": "[6]; 0.25 kg/ha", "result": 100, "unit": "%"},
      {"measurement": "pest or weed control at 250 g/ha", "setting": "[7]; 0.25 kg/ha", "result": 80, "unit": "%"},
      {"measurement": "selectivity (paddy rice)", "setting": "[8]", "result": "selectivity favorable to rice"},
      {"measurement": "plant injury at 250 g/ha", "setting": "[9]; 0.25 kg/ha", "result": 10, "unit": "%"},
      {"measurement": "plant injury at 250 g/ha", "setting": "[10]; 0.25 kg/ha", "result": 100, "unit": "%"},
      {"measurement": "plant injury at 250 g/ha", "setting": "[11]; 0.25 kg/ha", "result": 60, "unit": "%"},
      {"measurement": "usefulness preemergently against broad leaf weeds", "setting": "[12]", "result": "particularly useful"},
      {"measurement": "plant injury at 250 g/ha", "setting": "[13]; 0.25 kg/ha", "result": 20, "unit": "%"},
      {"measurement": "pest or weed control at 250 g/ha", "setting": "[14]; 0.25 kg/ha", "result": 30, "unit": "%"},
      {"measurement": "pest or weed control at 250 g/ha", "setting": "[15]; 0.25 kg/ha", "result": 50, "unit": "%"},
      {"measurement": "Preemergence Herbicidal Activity", "setting": "[16]; 0.25 kg/ha", "result": 0, "unit": "% Control"},
      {"measurement": "plant injury at 250 g/ha", "setting": "[17]; 0.25 kg/ha", "result": 20, "unit": "%"},
      {"measurement": "activity against weeds (paddy)", "setting": "[18]", "result": "very high activity"},
      {"measurement": "plant injury at 250 g/ha", "setting": "[19]; 0.25 kg/ha", "result": 50, "unit": "%"},
      {"measurement": "pest or weed control at 250 g/ha", "setting": "[20]; 0.25 kg/ha", "result": 100, "unit": "%"},
      {"measurement": "control of broadleafed weeds, postemergent", "setting": "[21]; plantings of corn, wheat, barley, oats, rice and sorghum, about 30 to 250 g/ha, e.g. 125 g/ha", "result": "very good control"},
      {"measurement": "pest or weed control at 250 g/ha", "setting": "[22]; 0.25 kg/ha", "result": 80, "unit": "%"}
    ]},
    {"smiles": "CCS(=O)(=O)N(c1cc(-n2nnn(CCCF)c2=O)c(F)cc1Cl)S(C)(=O)=O", "note": "[Compound 11, 1-[4-chloro-2-fluoro-5-[(N--ethylsulfonyl-N--methylsulfonyl)amino]-phenyl]-1,4-dihydro-4-(3-fluoropropyl)-5H--tetrazol-5-one]", "values": [
      {"measurement": "pest or weed control at 500 g/ha", "setting": "[1]; 0.5 kg/ha", "result": 50, "unit": "%"},
      {"measurement": "pest or weed control at 500 g/ha", "setting": "[2]; 0.5 kg/ha", "result": 80, "unit": "%"},
      {"measurement": "plant injury at 500 g/ha", "setting": "[3]; Gossypium hirsutum, pre-emergence, 0.5 kg/ha", "result": 100, "unit": "%"},
      {"measurement": "pest or weed control at 500 g/ha", "setting": "[4]; 0.5 kg/ha", "result": 100, "unit": "%"},
      {"measurement": "selectivity for crops, postemergence", "setting": "[23]", "result": "favorable selectivity"},
      {"measurement": "pest or weed control at 500 g/ha", "setting": "[6]; 0.5 kg/ha", "result": 100, "unit": "%"},
      {"measurement": "pest or weed control at 500 g/ha", "setting": "[7]; 0.5 kg/ha", "result": 80, "unit": "%"},
      {"measurement": "pest or weed control at 500 g/ha", "setting": "[24]", "result": 100, "unit": "%"},
      {"measurement": "plant injury at 500 g/ha", "setting": "[9]; 0.5 kg/ha", "result": 80, "unit": "%"},
      {"measurement": "plant injury at 500 g/ha", "setting": "[10]; 0.5 kg/ha", "result": 100, "unit": "%"},
      {"measurement": "plant injury at 500 g/ha", "setting": "[11]; 0.5 kg/ha", "result": 60, "unit": "%"},
      {"measurement": "plant injury at 500 g/ha", "setting": "[13]; 0.5 kg/ha", "result": 40, "unit": "%"},
      {"measurement": "pest or weed control at 500 g/ha", "setting": "[14]; 0.5 kg/ha", "result": 90, "unit": "%"},
      {"measurement": "pest or weed control at 500 g/ha", "setting": "[15]; 0.5 kg/ha", "result": 80, "unit": "%"},
      {"measurement": "plant injury at 500 g/ha", "setting": "[16]; Glycine max, pre-emergence, 0.5 kg/ha", "result": 30, "unit": "%"},
      {"measurement": "plant injury at 500 g/ha", "setting": "[17]; 0.5 kg/ha", "result": 70, "unit": "%"},
      {"measurement": "plant injury at 500 g/ha", "setting": "[19]; 0.5 kg/ha", "result": 80, "unit": "%"},
      {"measurement": "pest or weed control at 500 g/ha", "setting": "[20]; 0.5 kg/ha", "result": 100, "unit": "%"},
      {"measurement": "plant injury at 500 g/ha", "setting": "[25]", "result": 80, "unit": "%"},
      {"measurement": "pest or weed control at 500 g/ha", "setting": "[26]", "result": 100, "unit": "%"},
      {"measurement": "pest or weed control at 500 g/ha", "setting": "[27]", "result": 100, "unit": "%"},
      {"measurement": "plant injury at 500 g/ha", "setting": "[28]", "result": 95, "unit": "%"},
      {"measurement": "results in postemergence use against broadleafed weeds", "setting": "[21]; postemergence, corn, wheat and soybeans", "result": "particularly good results"},
      {"measurement": "pest or weed control at 500 g/ha", "setting": "[22]; 0.5 kg/ha", "result": 100, "unit": "%"}
    ]}
  ]
}
